Reference: patent US20090062190A1, “Transcriptional Regulation of Cytokines by LITAF and STAT (6)(B)” (priority 2005, published 2009)

System: translocation of STAT6(B) and LITAF in mouse macrophages
Test: Western blot after kinase inhibitor pretreatment plus LPS stimulation (FIG. 13)
Type: cell-based
Conditions: pretreatment before LPS stimulation
Description: It is well known that STAT family members share two major domains, oligomerization and Src homology 2 (SH2), for phosphorylation by Janis kinases (Jaks) that facilitate dimerization of STAT proteins and subsequent translocation into the nucleus (Gallmeier, et al., J Cell Physiol, 203:209-216, 2005; Chen, et al., J Allergy Clin Immunol, 114:476-489, 2004, Tang, et al., PNAS USA, 102:5132-5137, 2005). […] In this Western blot, cells were pretreated with various kinase inhibitors (FIG. 13a) before LPS stimulation.

C[S+]([O-])c1ccc(-c2nc(-c3ccncc3)c(-c3ccc(F)cc3)[nH]2)cc1 (stereo not drawn) [SB203580]
TNF-α protein levels compared to cells exposed to LPS only: suppression
LITAF and STAT6(B) expression in the nucleus (Western blot): substantially reduced
whole cell extract LITAF and STAT6(B) expression (Western blot): unchanged
